Data as given in ChEMBL document CHEMBL1201862, “PubChem BioAssay data set” (2004).
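1) Cells in 96-well plates. 2) Compound, 48 h, 5 concentrations. 3) Linear interpolation between surrounding doses. 4) Unreached endpoint = highest concentration. GI50 = concentration required for 50% inhibition of growth.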 Activity calls are given as the source filed them. Cut-off read from the data, not from the text of the source: active = GI50 up to about 1.1 µM and inactive = higher.

Key:
Test in all cases: inhibition of tumour cell growth, NCI panel, 48 h
CCRF-CEM = system: CCRF-CEM
EKVX = system: EKVX
HCT-116 = system: HCT-116
HCT-15 = system: HCT-15
K562 = system: K562
KM12 = system: KM12
LOX IMVI = system: LOX IMVI
NCI-H226 = system: NCI-H226
NCI-H460 = system: NCI-H460
OVCAR-8 = system: OVCAR-8
RPMI-8226 = system: RPMI-8226
RXF 393 = system: RXF 393
SK-MEL-2 = system: SK-MEL-2
SK-OV-3 = system: SK-OV-3
TK-10 = system: TK-10
U-251 = system: U-251
UACC-62 = system: UACC-62
SF-539 = system: SF-539
SNB-19 = system: SNB-19
A498 = system: A498

Measured: GI50

CN1C(=O)CN2C(Cl)(Cl)C2(c2ccccc2)c2cc(Cl)ccc21 (configuration not stated)
inactive: CCRF-CEM 53.7 µM | EKVX 65.8 µM | HCT-116 65.3 µM | K562 69.2 µM | KM12 56.5 µM | LOX IMVI > 100 µM | NCI-H226 > 100 µM | NCI-H460 96.2 µM | OVCAR-8 > 100 µM | RPMI-8226 > 100 µM | RXF 393 > 100 µM | SK-MEL-2 > 100 µM | SK-OV-3 > 100 µM | TK-10 > 100 µM | U-251 > 100 µM | UACC-62 > 100 µM
> 100 µM: HCT-15

CC1=NN(C(=O)c2ccc(Cl)cc2)C(=O)C1/N=N/c1ccc(S(=O)(=O)Nc2ncccn2)cc1 (configuration not stated)
> 100 µM: HCT-15
inactive: EKVX > 100 µM | HCT-116 > 100 µM | K562 > 100 µM | KM12 > 100 µM | LOX IMVI > 100 µM | NCI-H226 > 100 µM | NCI-H460 > 100 µM | OVCAR-8 > 100 µM | RXF 393 > 100 µM | SF-539 > 100 µM | SK-MEL-2 > 100 µM | SK-OV-3 > 100 µM | SNB-19 > 100 µM | TK-10 > 100 µM | U-251 > 100 µM | UACC-62 > 100 µM

C=Cc1cc2c(cc1O)CC[C@@H]1[C@@H]2CC[C@]2(C)[C@@H](O)CC[C@@H]12
inactive: A498 24.4 µM | CCRF-CEM 4.15 µM | EKVX 7.38 µM | K562 3.03 µM | KM12 5.11 µM | LOX IMVI 8.63 µM | NCI-H226 12.4 µM | NCI-H460 3.94 µM | RXF 393 2.56 µM | SF-539 2.06 µM | SK-MEL-2 5.78 µM | SK-OV-3 5.79 µM | SNB-19 4.23 µM | TK-10 12.2 µM | U-251 4.19 µM
3.95 µM: HCT-15

C/C=C1\NC(=O)[C@H]2CSSCCC=C[C@H](CC(=O)N[C@H](C(C)C)C(=O)N2)OC(=O)[C@H](C(C)C)NC1=O
0.0331 µM: HCT-15
active: A498 0.00015 µM | CCRF-CEM 0.000117 µM | EKVX 0.00102 µM | HCT-116 9.2e-05 µM | KM12 0.000154 µM | NCI-H226 0.000123 µM | NCI-H460 0.00124 µM | OVCAR-8 0.000255 µM | RPMI-8226 0.000147 µM | RXF 393 0.0008 µM | SF-539 6.98e-05 µM | SNB-19 0.000116 µM | TK-10 0.000226 µM | UACC-62 0.000188 µM

O=c1cnn(CCOCP(=O)(O)O)c(=O)[nH]1
inactive: A498 > 100 µM | CCRF-CEM > 100 µM | EKVX > 100 µM | K562 > 100 µM | KM12 > 100 µM | LOX IMVI > 100 µM | NCI-H226 > 100 µM | NCI-H460 > 100 µM | OVCAR-8 > 100 µM | RPMI-8226 > 100 µM | RXF 393 > 100 µM | SF-539 > 100 µM | SK-MEL-2 > 100 µM | SNB-19 > 100 µM | TK-10 > 100 µM | U-251 > 100 µM

CN(C)c1ccc(/C=N/c2ccc(Oc3ccc(Cl)cc3)c(Cl)c2)cc1
18.9 µM: HCT-15
inactive: CCRF-CEM 10.8 µM | EKVX 17.5 µM | HCT-116 5.2 µM | KM12 17.1 µM | LOX IMVI 17.9 µM | NCI-H226 21.6 µM | NCI-H460 19.5 µM | OVCAR-8 17.5 µM | RPMI-8226 11.4 µM | SF-539 16.9 µM | SK-MEL-2 14.5 µM | SK-OV-3 26.8 µM | SNB-19 16.4 µM | TK-10 32.4 µM | U-251 16.9 µM | UACC-62 17.5 µM

COc1ccc2[nH]c(Cl)c(/C=C3/C(=O)Nc4cc(C)c(OC)cc43)c2c1
2.91 µM: HCT-15
inactive: A498 5.82 µM | CCRF-CEM 3.43 µM | EKVX 9.53 µM | HCT-116 4.59 µM | K562 4.39 µM | KM12 3.35 µM | LOX IMVI 5.3 µM | NCI-H460 3.36 µM | OVCAR-8 7.71 µM | RPMI-8226 4.32 µM | RXF 393 11.1 µM | SK-MEL-2 2.4 µM | SK-OV-3 2.52 µM | SNB-19 8.26 µM | TK-10 9.18 µM | U-251 4.88 µM | UACC-62 3.55 µM
active: SF-539 0.723 µM

Cc1nc(Nc2nc3ccccc3[nH]2)[nH]c(=O)c1CCO
inactive: A498 > 100 µM | CCRF-CEM > 69 µM | EKVX > 100 µM | HCT-116 77.6 µM | K562 > 100 µM | KM12 > 100 µM | LOX IMVI 44.8 µM | NCI-H226 26.6 µM | NCI-H460 34.6 µM | OVCAR-8 > 53.2 µM | RXF 393 21.7 µM | SF-539 39.9 µM | SK-MEL-2 37.2 µM | SK-OV-3 38.3 µM | SNB-19 > 100 µM | TK-10 39.4 µM | U-251 59.8 µM | UACC-62 68.9 µM
61.9 µM: HCT-15

O=C1CSc2sc(=S)sc2S1
> 79.3 µM: HCT-15
inactive: A498 31.3 µM | CCRF-CEM > 76.4 µM | EKVX > 100 µM | HCT-116 > 100 µM | K562 > 100 µM | KM12 > 100 µM | LOX IMVI 61.1 µM | NCI-H226 > 100 µM | NCI-H460 > 100 µM | OVCAR-8 > 100 µM | RPMI-8226 78.9 µM | RXF 393 43.1 µM | SF-539 > 100 µM | SK-MEL-2 > 82.4 µM | SK-OV-3 > 75.3 µM | SNB-19 > 100 µM | U-251 > 100 µM | UACC-62 > 100 µM

COc1ccc(CC/N=C2\CCC(C(=O)NCCc3ccc(OC)c(OC)c3)N2)cc1OC (configuration not stated)
> 100 µM: HCT-15
inactive: A498 > 100 µM | CCRF-CEM > 100 µM | EKVX > 100 µM | HCT-116 > 100 µM | K562 > 100 µM | KM12 > 100 µM | LOX IMVI > 100 µM | NCI-H226 > 100 µM | NCI-H460 > 100 µM | OVCAR-8 > 100 µM | RPMI-8226 > 100 µM | SK-MEL-2 > 100 µM | SK-OV-3 > 100 µM | SNB-19 > 100 µM | TK-10 > 100 µM | U-251 > 100 µM | UACC-62 > 100 µM

Cc1cc(C)c2c(n1)S(=O)(=O)N(CCCN1CCN(c3cccc(C(F)(F)F)c3)CC1)C(C(=O)c1ccccc1)=C2O
inactive: A498 8.57 µM | CCRF-CEM 5.19 µM | EKVX 4 µM | HCT-116 4.38 µM | K562 3.69 µM | KM12 5.02 µM | LOX IMVI 3.03 µM | NCI-H460 4.66 µM | OVCAR-8 5.66 µM | RXF 393 5.73 µM | SF-539 10.1 µM | SK-MEL-2 17.3 µM | SK-OV-3 20 µM | SNB-19 5.53 µM | TK-10 10.5 µM | U-251 5.4 µM | UACC-62 10.2 µM
4.62 µM: HCT-15
active: NCI-H226 1.03 µM

OCc1nnn2c1CCC2
inactive: CCRF-CEM > 100 µM | EKVX > 100 µM | K562 > 100 µM | KM12 > 100 µM | LOX IMVI > 100 µM | NCI-H460 > 100 µM | OVCAR-8 > 100 µM | RXF 393 > 100 µM | SF-539 > 100 µM | SK-MEL-2 > 100 µM | SK-OV-3 > 100 µM | TK-10 > 100 µM | U-251 > 100 µM | UACC-62 > 100 µM
> 100 µM: HCT-15

CCCO[C@@H]1[C@@H](OC(C)=O)[C@@H](OC(C)=O)C(C)(C)/C=C/[C@H](C)C(=O)[C@@]2(OC(C)=O)C[C@@](C)(OC(C)=O)[C@H](OC(C)=O)[C@@H]2[C@H]2OC(=O)CC[C@@]12OC(=O)c1ccccc1
> 25 µM: HCT-15
inactive: CCRF-CEM 4.85 µM | EKVX > 25 µM | HCT-116 6.97 µM | K562 4.63 µM | KM12 > 25 µM | LOX IMVI > 25 µM | NCI-H226 > 25 µM | NCI-H460 6.73 µM | OVCAR-8 > 25 µM | RXF 393 > 25 µM | SF-539 > 25 µM | SK-MEL-2 > 25 µM | SK-OV-3 > 25 µM | SNB-19 > 25 µM | TK-10 > 25 µM | U-251 > 25 µM | UACC-62 > 25 µM

CC(=O)OCC1=C(COC(C)=O)C(=O)c2c(O)ccc(O)c2C1=O
10.4 µM: HCT-15
inactive: A498 18.4 µM | CCRF-CEM 2.45 µM | EKVX 15.1 µM | HCT-116 12.1 µM | K562 17.9 µM | KM12 13.3 µM | NCI-H226 15.8 µM | OVCAR-8 10.2 µM | RPMI-8226 3.2 µM | SF-539 6.34 µM | SK-MEL-2 3.11 µM | SK-OV-3 18.8 µM | TK-10 16.3 µM | U-251 13.1 µM | UACC-62 5.56 µM

CO/N=C1/c2sccc2[C@H](NC(=O)CNC(=O)OC(C)(C)C)[C@@H]1O
> 100 µM: HCT-15
inactive: A498 > 100 µM | CCRF-CEM > 100 µM | EKVX > 100 µM | HCT-116 > 100 µM | K562 > 100 µM | LOX IMVI > 100 µM | NCI-H226 > 100 µM | NCI-H460 > 100 µM | OVCAR-8 > 100 µM | RXF 393 > 100 µM | SF-539 > 100 µM | SK-MEL-2 > 100 µM | SK-OV-3 > 100 µM | SNB-19 > 100 µM | TK-10 > 100 µM | U-251 > 100 µM | UACC-62 > 100 µM

C1#Cc2ccccc2OCCOc2ccccc2C#Cc2ccccc2OCCOc2ccccc21
inactive: A498 17.3 µM | CCRF-CEM 18 µM | EKVX 26.5 µM | HCT-116 32.7 µM | K562 11.7 µM | KM12 68.2 µM | LOX IMVI 16 µM | NCI-H226 19.1 µM | NCI-H460 24.9 µM | OVCAR-8 13.8 µM | RPMI-8226 16.4 µM | RXF 393 14.7 µM | SK-MEL-2 71 µM | SNB-19 25.9 µM | TK-10 28.8 µM | U-251 12.5 µM | UACC-62 > 100 µM
> 100 µM: HCT-15
